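Method: 48-hour compound exposure of cells in 96-well plates, five concentrations, linear interpolation of endpoints. GI50 is the concentration that inhibits growth by half.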 Active and inactive are the calls of the source. No stated cut-off is given here; in the data, active = GI50 up to about 1.1 µM and inactive = higher.
How the values were obtained:
Experiment in all cases: growth of human tumour cells (NCI), 48 h
NCI/ADR-RES = test system: NCI/ADR-RES
TK-10 = test system: TK-10
NCI-H226 = test system: NCI-H226
SK-OV-3 = test system: SK-OV-3
IGROV-1 = test system: IGROV-1
KM12 = test system: KM12
K562 = test system: K562
CCRF-CEM = test system: CCRF-CEM
OVCAR-5 = test system: OVCAR-5
OVCAR-8 = test system: OVCAR-8
HCT-116 = test system: HCT-116
Malme-3M = test system: Malme-3M
UO-31 = test system: UO-31
U-251 = test system: U-251
NCI-H522 = test system: NCI-H522
HOP-62 = test system: HOP-62
SN12C = test system: SN12C
RPMI-8226 = test system: RPMI-8226
UACC-62 = test system: UACC-62
SK-MEL-5 = test system: SK-MEL-5
BT-549 = test system: BT-549
OVCAR-3 = test system: OVCAR-3
786-0 = test system: 786-0
MDA-N = test system: MDA-N
SK-MEL-2 = test system: SK-MEL-2
OVCAR-4 = test system: OVCAR-4
LOX IMVI = test system: LOX IMVI
PC-3 = test system: PC-3
SR = test system: SR
RXF 393 = test system: RXF 393
SK-MEL-28 = test system: SK-MEL-28
CAKI-1 = test system: CAKI-1
SF-295 = test system: SF-295
MOLT-4 = test system: MOLT-4
Hs-578T = test system: Hs-578T
A549 = test system: A549
NCI-H23 = test system: NCI-H23
HCC 2998 = test system: HCC 2998
EKVX = test system: EKVX
SW-620 = test system: SW-620
A498 = test system: A498
COLO 205 = test system: COLO 205
MDA-MB-435 = test system: MDA-MB-435
M14 = test system: M14
HCT-15 = test system: HCT-15
DU-145 = test system: DU-145
SF-539 = test system: SF-539
HT-29 = test system: HT-29
SF-268 = test system: SF-268
SNB-19 = test system: SNB-19
HOP-92 = test system: HOP-92
NCI-H460 = test system: NCI-H460
T47D = test system: T47D
MCF7 = test system: MCF7
ACHN = test system: ACHN
UACC-257 = test system: UACC-257
HL-60 = test system: HL-60
SNB-75 = test system: SNB-75
MDA-MB-231 = test system: MDA-MB-231

For Nc1nc(N)c2nc(CNc3ccc(C(=O)NC(CCCCNC(=O)c4ccccc4C(=O)O)C(=O)O)cc3)cnc2n1 (configuration not stated), the GI50 (NCI/ADR-RES) was 0.01 µM (active), the GI50 (TK-10) was 0.173 µM (active) and the GI50 (NCI-H226) was > 100 µM (inactive). The GI50 (SK-OV-3) was > 100 µM (inactive), the GI50 (IGROV-1) was < 0.0113 µM (active) and the GI50 (KM12) was 0.01 µM (active). The GI50 (K562) was 0.01 µM (active), the GI50 (CCRF-CEM) was 0.01 µM (active) and the GI50 (OVCAR-5) was > 85.3 µM (inactive). The GI50 (OVCAR-8) was 0.01 µM (active), the GI50 (HCT-116) was 0.01 µM (active) and the GI50 (Malme-3M) was 3.61 µM (inactive). The GI50 (UO-31) was 0.00776 µM (active), the GI50 (U-251) was 0.01 µM (active) and the GI50 (NCI-H522) was 5.38 µM (inactive). For the same molecule, the GI50 (HOP-62) was 0.01 µM (active), the GI50 (SN12C) was 0.01 µM (active) and the GI50 (RPMI-8226) was 0.01 µM (active). The GI50 (UACC-62) was 0.01 µM (active), the GI50 (SK-MEL-5) was < 0.0119 µM (active) and the GI50 (BT-549) was > 100 µM (inactive). For the same molecule, the GI50 (OVCAR-3) was > 100 µM (inactive), the GI50 (786-0) was 0.01 µM (active) and the GI50 (MDA-N) was 0.01 µM (active). The GI50 (SK-MEL-2) was 68.4 µM (inactive), the GI50 (OVCAR-4) was > 100 µM (inactive) and the GI50 (LOX IMVI) was 0.01 µM (active). The GI50 (PC-3) was 0.01 µM (active), the GI50 (SR) was 0.01 µM (active) and the GI50 (RXF 393) was 0.01 µM (active). The GI50 (SK-MEL-28) was < 0.0275 µM (active), the GI50 (CAKI-1) was 0.01 µM (active) and the GI50 (SF-295) was < 0.0332 µM (active). For the same molecule, the GI50 (MOLT-4) was 0.01 µM (active), the GI50 (Hs-578T) was > 100 µM (inactive) and the GI50 (A549) was 0.01 µM (active). For the same molecule, the GI50 (NCI-H23) was 0.0143 µM (active), the GI50 (HCC 2998) was 0.01 µM (active) and the GI50 (EKVX) was > 34.4 µM (inactive). The GI50 (SW-620) was 0.01 µM (active), the GI50 (A498) was 0.0738 µM (active) and the GI50 (COLO 205) was 0.01 µM (active). For the same molecule, the GI50 (MDA-MB-435) was 0.01 µM (active), the GI50 (M14) was 0.01 µM (active) and the GI50 (HCT-15) was 0.01 µM. For the same molecule, the GI50 (DU-145) was 0.01 µM (active), the GI50 (SF-539) was < 0.0133 µM (active) and the GI50 (HT-29) was 0.01 µM (active). The GI50 (SF-268) was 0.01 µM (active), the GI50 (SNB-19) was < 0.0158 µM (active) and the GI50 (HOP-92) was 0.445 µM (active). For the same molecule, the GI50 (NCI-H460) was 0.01 µM (active), the GI50 (T47D) was 0.01 µM (active) and the GI50 (MCF7) was 0.01 µM (active). The GI50 (ACHN) was 0.01 µM (active).
In the case of O=C(Nc1ccc(Cl)cc1)Oc1ccc(C(=S)Nc2ccc(Br)cc2)cc1, the GI50 (NCI/ADR-RES) is reported as 9.53 µM (inactive), the GI50 (SK-OV-3) is reported as 26.5 µM (inactive) and the GI50 (IGROV-1) is reported as 2.05 µM (inactive). The GI50 (KM12) was 2.55 µM (inactive), the GI50 (K562) was 2.36 µM (inactive) and the GI50 (CCRF-CEM) was 3.04 µM (inactive). For the same molecule, the GI50 (OVCAR-5) was 4.05 µM (inactive), the GI50 (OVCAR-8) was 6.01 µM (inactive) and the GI50 (HCT-116) was 10.3 µM (inactive). The GI50 (Malme-3M) was 20.2 µM (inactive), the GI50 (UO-31) was 18.2 µM (inactive) and the GI50 (U-251) was 20.5 µM (inactive). The GI50 (NCI-H522) was 10.4 µM (inactive), the GI50 (HOP-62) was 39.3 µM (inactive) and the GI50 (RPMI-8226) was 23.5 µM (inactive). For the same molecule, the GI50 (UACC-62) was 1.63 µM (inactive), the GI50 (SK-MEL-5) was 6.1 µM (inactive) and the GI50 (BT-549) was 17.9 µM (inactive). The GI50 (OVCAR-3) was 16.1 µM (inactive), the GI50 (786-0) was 16 µM (inactive) and the GI50 (MDA-N) was 16.7 µM (inactive). The GI50 (SK-MEL-2) was 6.62 µM (inactive), the GI50 (OVCAR-4) was 7.4 µM (inactive) and the GI50 (LOX IMVI) was 0.334 µM (active). For the same molecule, the GI50 (PC-3) was 21.1 µM (inactive), the GI50 (SR) was 5.06 µM (inactive) and the GI50 (SK-MEL-28) was 10.4 µM (inactive). For the same molecule, the GI50 (CAKI-1) was 7.78 µM (inactive), the GI50 (SF-295) was 0.438 µM (active) and the GI50 (UACC-257) was 15.5 µM (inactive). For the same molecule, the GI50 (MOLT-4) was 4.44 µM (inactive), the GI50 (Hs-578T) was 57.1 µM (inactive) and the GI50 (A549) was 10 µM (inactive). The GI50 (NCI-H23) was 27.7 µM (inactive), the GI50 (HCC 2998) was 15.4 µM (inactive) and the GI50 (EKVX) was 2.49 µM (inactive). The GI50 (SW-620) was 20.3 µM (inactive), the GI50 (A498) was 19.1 µM (inactive) and the GI50 (COLO 205) was 9.75 µM (inactive). The GI50 (MDA-MB-435) was 12.4 µM (inactive), the GI50 (M14) was 3.43 µM (inactive) and the GI50 (HCT-15) was 11 µM. The GI50 (DU-145) was 25.8 µM (inactive), the GI50 (SF-539) was 15.5 µM (inactive) and the GI50 (HT-29) was 2.19 µM (inactive). The GI50 (SF-268) was 30.5 µM (inactive), the GI50 (SNB-19) was 34.4 µM (inactive) and the GI50 (NCI-H460) was 4.85 µM (inactive). For the same molecule, the GI50 (HL-60) was 1.61 µM (inactive), the GI50 (T47D) was 10.5 µM (inactive) and the GI50 (MCF7) was 11.7 µM (inactive). For the same molecule, the GI50 (ACHN) was 12.2 µM (inactive).
In the case of CC(C)=Nn1cnc2c1=NC(C)(C)NC=2C(N)=O, the GI50 (TK-10) is reported as > 10 µM (inactive), the GI50 (NCI-H226) is reported as > 10 µM (inactive) and the GI50 (IGROV-1) is reported as > 10 µM (inactive). The GI50 (KM12) was > 10 µM (inactive), the GI50 (K562) was > 10 µM (inactive) and the GI50 (CCRF-CEM) was > 10 µM (inactive). For the same molecule, the GI50 (OVCAR-5) was > 10 µM (inactive), the GI50 (OVCAR-8) was > 10 µM (inactive) and the GI50 (UO-31) was > 10 µM (inactive). For the same molecule, the GI50 (U-251) was > 10 µM (inactive), the GI50 (NCI-H522) was > 10 µM (inactive) and the GI50 (SK-MEL-5) was > 10 µM (inactive). For the same molecule, the GI50 (BT-549) was > 10 µM (inactive), the GI50 (OVCAR-3) was > 10 µM (inactive) and the GI50 (786-0) was > 10 µM (inactive). The GI50 (MDA-N) was > 10 µM (inactive), the GI50 (OVCAR-4) was > 10 µM (inactive) and the GI50 (SR) was > 10 µM (inactive). The GI50 (RXF 393) was > 10 µM (inactive), the GI50 (SF-295) was > 10 µM (inactive) and the GI50 (UACC-257) was > 10 µM (inactive). For the same molecule, the GI50 (MOLT-4) was > 10 µM (inactive), the GI50 (Hs-578T) was > 10 µM (inactive) and the GI50 (A549) was > 10 µM (inactive). The GI50 (NCI-H23) was > 10 µM (inactive), the GI50 (EKVX) was > 10 µM (inactive) and the GI50 (MDA-MB-435) was > 10 µM (inactive). For the same molecule, the GI50 (M14) was > 10 µM (inactive), the GI50 (SNB-75) was > 10 µM (inactive) and the GI50 (DU-145) was > 10 µM (inactive). For the same molecule, the GI50 (SF-539) was > 10 µM (inactive), the GI50 (MDA-MB-231) was 0.125 µM (active) and the GI50 (HT-29) was 1 µM (active). For the same molecule, the GI50 (SF-268) was > 10 µM (inactive), the GI50 (SNB-19) was > 10 µM (inactive) and the GI50 (NCI-H460) was > 10 µM (inactive). The GI50 (HL-60) was > 10 µM (inactive), the GI50 (T47D) was 0.001 µM (active) and the GI50 (MCF7) was > 10 µM (inactive). The GI50 (ACHN) was > 10 µM (inactive).

From ChEMBL document CHEMBL1201862, “PubChem BioAssay data set” (2004)
